From patent publication US20260317313A1, “DNA Polymerase Theta Inhibitors Containing Non-Saturated 5-Membered Heterocyclic Rings and Use Thereof” (Thomas Jefferson University, priority 2022, published 2026) come the findings set out here.

Where two headings read alike, the source gives them in different places.

Assay [1] concerns the target T1, recombinant human Polq polymerase domain (residues 1792-2590) (Homo sapiens, UniProt O75417).
T1 sequence (O75417 1792-2590): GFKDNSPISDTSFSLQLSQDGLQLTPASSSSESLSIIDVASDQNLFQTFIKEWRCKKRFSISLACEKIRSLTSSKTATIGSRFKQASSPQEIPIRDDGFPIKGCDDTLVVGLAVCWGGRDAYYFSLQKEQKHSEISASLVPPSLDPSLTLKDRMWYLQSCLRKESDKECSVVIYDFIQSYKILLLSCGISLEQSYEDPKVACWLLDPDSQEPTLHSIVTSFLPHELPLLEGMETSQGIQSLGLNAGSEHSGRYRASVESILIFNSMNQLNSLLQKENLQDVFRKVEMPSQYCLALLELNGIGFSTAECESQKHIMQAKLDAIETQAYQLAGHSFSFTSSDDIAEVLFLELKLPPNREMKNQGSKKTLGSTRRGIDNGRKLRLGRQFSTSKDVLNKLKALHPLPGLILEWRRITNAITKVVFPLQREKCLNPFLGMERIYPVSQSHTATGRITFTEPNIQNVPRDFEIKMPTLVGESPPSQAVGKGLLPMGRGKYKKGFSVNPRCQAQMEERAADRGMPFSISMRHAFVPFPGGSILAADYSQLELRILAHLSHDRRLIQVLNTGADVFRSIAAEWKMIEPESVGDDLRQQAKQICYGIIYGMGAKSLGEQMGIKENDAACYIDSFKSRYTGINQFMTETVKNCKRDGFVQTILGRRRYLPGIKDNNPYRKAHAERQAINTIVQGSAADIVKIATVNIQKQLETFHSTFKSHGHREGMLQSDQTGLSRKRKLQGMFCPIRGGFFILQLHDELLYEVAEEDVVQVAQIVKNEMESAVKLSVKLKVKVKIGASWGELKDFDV
Nature of the assay: Cy5 fluorescence assay of Polq polymerase enzymatic activity. Conditions: 60 nM primer-template, 50 uM dNTPs, 37° C., 18 min, 2.5% DMSO, triplicate. Format: biochemical. How it is done:
The following Cy5 fluorescence assay was used to measure the ability of compounds to inhibit Polq polymerase domain in vitro. The fluorescent based assay was performed as follows: 60 nM of the pre-annealed primer-template containing a 5′ Cy5 fluorophore conjugated template strand (SEQ ID NO 6: 5′-/5Cy5/ […] GGACAG-3′), a downstream complementary oligo conjugated with a 3′ Blackhole quencher (SEQ ID NO 7: 5′-CTAAGCTCACAGTG/3IAbRQSp/-3′) and a primer strand (SEQ ID NO 8: 5′-CTGTCCTGCATGATG-3′) was mixed with 50 uM 2′-deoxyribonucleoside triphosphates (dNTPs), 0.1 mg/mL Bovine serum albumin (BSA), 0.01% NP-40, 10% glycerol, 1 mM dithiothreitol (DTT), 10 mM MgCl2, 25 mM TrisHCl pH 7.8 in the presence of 2.5% DMSO with or without various concentrations (7-point dilution series) of Polq small molecule inhibitors represented by Formula I at 37° C. in a volume of 40 μL.

In the next assay the test system is BRCA2-null HCT116 cells. Briefly: Survival of BRCA2-null HCT116 cells. Conditions: as compared to BRCA2-WT HCT116 cells; n=3. Type of assay: cell-based.
Another assay has as its system BRCA2-null DLD1 cells. Briefly: Survival of BRCA2-null DLD1 cells. Format: cell-based. Conditions: as compared to BRCA2-WT DLD1 cells; n=3.
The next assay deals with BRCA2-WT DLD1 cells. Nature of the assay: Survival of BRCA2-WT DLD1 cells. As to conditions: n=3. Type of assay: cell-based.
Another assay has as its system BRCA2-WT HCT116 cells. Briefly: Survival of BRCA2-WT HCT116 cells. Format: cell-based. As to conditions: n=3.
[2] abbreviates: 5 nM Polq polymerase domain, read-out: Polq IC50.
The mark [3] stands for this setting: Polq IC50, 5 nM Polq polymerase domain.

In general, IC50 refers to the concentration that gives 50% inhibition. Consider `N#CCN(C(=O)Oc1c(-n2cc[nH]c2=O)cc(C(F)(F)F)cc1C(F)(F)F)c1ccc(F)cc1` [Example 20, 2-(2-oxo-2,3-dihydro-1H-imidazol-1-yl)-4,6-bis(trifluoromethyl)phenyl N-(cyanomethyl)-N-(4-fluorophenyl)carbamate], for which the IC50 in assay [1] (setting [2]) was determined as 439 nM.
As for `[2H]C([2H])([2H])N(C(=O)Oc1c(-c2nnn[nH]2)cc(C(F)(F)F)cc1C(F)(F)F)c1ccc(F)cc1` [Example 21, 2-(1H-1,2,3,4-tetrazol-5-yl)-4,6-bis(trifluoromethyl)phenyl N-(4-fluorophenyl)-N-(methyl-d3)carbamate], the IC50 in assay [1] (setting [3]) was found to be 3.2 nM.
With `[2H]C([2H])([2H])N(C(=O)Cc1c(-c2cnn(C(=O)OC(C)(C)C)c2)cc(C(F)(F)F)cc1C(F)(F)F)c1ccc(F)cc1` [Example 22, Tert-butyl 4-(2-{[(4-fluorophenyl)(methyl-d3)carbamoyl]methyl}-3,5-bis(trifluoromethyl)phenyl)-1H-pyrazole-1-carboxylate], the IC50 in assay [1] (setting [2]) amounted to 24.5 nM.
Same read-out and setting: next, `[2H]C([2H])([2H])N(C(=O)Cc1c(-c2cn[nH]c2)cc(C(F)(F)F)cc1C(F)(F)F)c1ccc(F)cc1` [Example 23, N-(4-fluorophenyl)-N-(methyl-d3)-2-[2-(1H-pyrazol-4-yl)-4,6-bis(trifluoromethyl)phenyl]acetamide]: 46.8 nM.
Turning to `[2H]C([2H])([2H])N(C(=O)Oc1c(-c2cn(C3CS(=O)(=O)CC3O)nn2)cc(C(F)(F)F)cc1C(F)(F)F)c1ccc(F)c(Cl)c1F` (centres unmarked) [Example 24, 2-[1-(4-hydroxy-1,1-dioxo-1λ^6-thiolan-3-yl)-1H-1,2,3-triazol-4-yl]-4,6-bis(trifluoromethyl)phenyl N-(3-chloro-2,4-difluorophenyl)-N-(methyl-d3)carbamate], the IC50 in assay [1] (setting [3]) worked out at 13.6 nM.
Same read-out and setting: to `[2H]C([2H])([2H])N(C(=O)Oc1c(-c2cnn(CC(O)CN(C)C)c2)cc(C(F)(F)F)cc1C(F)(F)F)c1ccc(F)cc1` (centres unmarked) [Example 25, 2-{1-[3-(dimethylamino)-2-hydroxypropyl]-1H-pyrazol-4-yl}-4,6-bis(trifluoromethyl)phenyl N-(4-fluorophenyl)-N-(methyl-d3)carbamate] belongs 24 nM.
As for `[2H]C([2H])([2H])N(C(=O)Oc1c(-c2cn[nH]c2)cc(C(F)(F)F)cc1C(F)(F)F)c1ccc(F)cc1` [Example 26, 2-(1H-pyrazol-4-yl)-4,6-bis(trifluoromethyl)phenyl 4-fluorophenyl(methyl-d3)carbamate], the “survival of BRCA2-null HCT116 cells” value with BRCA2-null HCT116 cells is “significantly reduced”. Further, the “survival of BRCA2-null DLD1 cells” value with BRCA2-null DLD1 cells is listed as “significantly reduced”. In the assay on BRCA2-WT DLD1 cells, the “resistance of BRCA2-WT DLD1 cells to Polqi” value is listed as “mostly resistant”. Further, in the assay on BRCA2-WT HCT116 cells, the “resistance of BRCA2-WT HCT116 cells to Polqi” value is “mostly resistant”. For the same molecule, the IC50 in assay [1] (setting [3]) is 2 nM.
With `[2H]C([2H])([2H])N(C(=O)Oc1c(-c2cnn(CC(N)=O)c2)cc(C(F)(F)F)cc1C(F)(F)F)c1ccc(F)cc1` [Example 27, 2-(1-(2-amino-2-oxoethyl)-1H-pyrazol-4-yl)-4,6-bis(trifluoromethyl)phenyl 4-fluorophenyl(methyl-d3)carbamate], in the assay on BRCA2-null HCT116 cells, the “survival of BRCA2-null HCT116 cells” value is recorded as “significantly reduced”. In addition, in the assay on BRCA2-null DLD1 cells, the “survival of BRCA2-null DLD1 cells” value is “significantly reduced”. Moreover, the “resistance of BRCA2-WT DLD1 cells to Polqi” value with BRCA2-WT DLD1 cells was “mostly resistant”. Also, the “resistance of BRCA2-WT HCT116 cells to Polqi” value in the assay with BRCA2-WT HCT116 cells is recorded as “mostly resistant”. Besides, the IC50 in assay [1] (setting [3]) worked out at 1.8 nM.
As to `[2H]C([2H])([2H])N(C(=O)Oc1c(-c2cn(C3CN(S(C)(=O)=O)C3)nn2)cc(C(F)(F)F)cc1C(F)(F)F)c1ccc(F)c(Cl)c1F` [Example 28, 2-[1-(1-methanesulfonylazetidin-3-yl)-1H-1,2,3-triazol-4-yl]-4,6-bis(trifluoromethyl)phenyl N-(3-chloro-2,4-difluorophenyl)-N-(methyl-d3)carbamate], the IC50 in assay [1] (setting [3]) was found to be 3.2 nM.
Still for that read-out and setting: to `[2H]C([2H])([2H])N(C(=O)Oc1c(-c2cn(CC(O)CNC)nn2)cc(C(F)(F)F)cc1C(F)(F)F)c1ccc(F)cc1` (centres unmarked) [Example 29, 2-{1-[2-hydroxy-3-(methylamino)propyl]-1H-1,2,3-triazol-4-yl}-4,6-bis(trifluoromethyl)phenyl N-(4-fluorophenyl)-N-(methyl-d3)carbamate] belongs 3.4 nM; to `[2H]C([2H])([2H])N(C(=O)Oc1c(-c2cn(CC(O)CN(C)C)nn2)cc(C(F)(F)F)cc1C(F)(F)F)c1ccc(F)cc1` (centres unmarked) [Example 30, 2-{1-[3-(dimethylamino)-2-hydroxypropyl]-1H-1,2,3-triazol-4-yl}-4,6-bis(trifluoromethyl)phenyl N-(4-fluorophenyl)-N-(methyl-d3)carbamate], 1.6 nM; to `[2H]C([2H])([2H])N(C(=O)Oc1c(-c2nnco2)cc(C(F)(F)F)cc1C(F)(F)F)c1ccc(F)cc1` [Example 31, 2-(1,3,4-oxadiazol-2-yl)-4,6-bis(trifluoromethyl)phenyl N-(4-fluorophenyl)-N-(methyl-d3)carbamate], 5.6 nM.
The same measure, in the same setting: next, `[2H]C([2H])([2H])N(C(=O)Oc1c(-n2cncn2)cc(C(F)(F)F)cc1C(F)(F)F)c1ccc(F)cc1` [Example 32, 2-(1H-1,2,4-triazol-1-yl)-4,6-bis(trifluoromethyl)phenyl N-(4-fluorophenyl)-N-(methyl-d3)carbamate]: 18 nM; `[2H]C([2H])([2H])N(C(=O)Oc1c(-c2cn(C3CN(S(=O)(=O)CCN)C3)nn2)cc(C(F)(F)F)cc1C(F)(F)F)c1ccc(F)c(Cl)c1F` [Example 33, 2-{1-[1-(2-aminoethanesulfonyl)azetidin-3-yl]-1H-1,2,3-triazol-4-yl}-4,6-bis(trifluoromethyl)phenyl N-(3-chloro-2,4-difluorophenyl)-N-(methyl-d3)carbamate]: 2.9 nM; `[2H]C([2H])([2H])N(C(=O)Oc1c(-n2cn[nH]c2=O)cc(C(F)(F)F)cc1C(F)(F)F)c1ccc(F)cc1` [Example 34, 2-(5-oxo-4,5-dihydro-1H-1,2,4-triazol-4-yl)-4,6-bis(trifluoromethyl)phenyl N-(4-fluorophenyl)-N-(methyl-d3)carbamate]: 51 nM.
On the same count and under the same terms, to `[2H]C([2H])([2H])N(C(=O)Oc1c(-n2cnn(CC(O)CNC)c2=O)cc(C(F)(F)F)cc1C(F)(F)F)c1ccc(F)cc1` (centres unmarked) [Example 35, 2-{1-[2-hydroxy-3-(methylamino)propyl]-5-oxo-4,5-dihydro-1H-1,2,4-triazol-4-yl}-4,6-bis(trifluoromethyl)phenyl N-(4-fluorophenyl)-N-(methyl-d3)carbamate] belongs 104 nM; to `CN(C(=O)Oc1c(-c2cn(CCOCCOCCC(=O)O)nn2)cc(C(F)(F)F)cc1C(F)(F)F)c1ccc(F)cc1` [Example 36, 3-(2-(2-(4-(2-(((4-fluorophenyl)(methyl)carbamoyl)oxy)-3,5-bis(trifluoromethyl)phenyl)-1H-1,2,3-triazol-1-yl)ethoxy)ethoxy)propanoic Acid], 3 nM.
Take `Cc1ncsc1-c1ccc(CNC(=O)[C@@H]2C[C@@H](O)CN2C(=O)[C@@H](NC(=O)CCOCCOCCn2cc(-c3cc(C(F)(F)F)cc(C(F)(F)F)c3OC(=O)N(C)c3ccc(F)cc3)nn2)C(C)(C)C)cc1` [Example 37, 2-(1-(2-(2-(3-(((S)-1-((2S,4R)-4-hydroxy-2-((4-(4-methylthiazol-5-yl)benzyl)carbamoyl)pyrrolidin-1-yl)-3,3-dimethyl-1-oxobutan-2-yl)amino)-3-oxopropoxy)ethoxy)ethyl)-1H-1,2,3-triazol-4-yl)-4,6-bis(trifluoromethyl)phenyl (4-fluorophenyl)(methyl)carbamate]: in assay [1] (setting [3]), the IC50 worked out at 4.6 nM.
